Experimental data: patent US20210070748A1, “INHIBITORS OF BRUTONS TYROSINE KINASE” (Pharmacyclics LLC, priority 2015, published 2021)

Key:
BTK-WT = biological target: T1, BTK-WT (Homo sapiens, UniProt Q06187); assay: Btk in vitro inhibitory activity (one of Method A TR-FRET, Method B electrophoretic mobility shift, Method C radiometric filter binding); assay type: biochemical; details: D-compounds panel data; read-out: IC50 BTK-WT
T1 construct: purified from insect cells as a full-length construct containing an N-terminal 6X-His tag; His6 (N); made in house; host or cells: insect cells (baculovirus Sf21 in Method B)

LCK = LCK (Homo sapiens, UniProt P06239); assay: Inhibition of a panel of kinases, in vitro HotSpot kinase assay: LCK; assay type: biochemical; details: D-compounds panel data; 1 μM ATP; read-out: IC50 LCK
Chain of LCK (P06239 whole entry): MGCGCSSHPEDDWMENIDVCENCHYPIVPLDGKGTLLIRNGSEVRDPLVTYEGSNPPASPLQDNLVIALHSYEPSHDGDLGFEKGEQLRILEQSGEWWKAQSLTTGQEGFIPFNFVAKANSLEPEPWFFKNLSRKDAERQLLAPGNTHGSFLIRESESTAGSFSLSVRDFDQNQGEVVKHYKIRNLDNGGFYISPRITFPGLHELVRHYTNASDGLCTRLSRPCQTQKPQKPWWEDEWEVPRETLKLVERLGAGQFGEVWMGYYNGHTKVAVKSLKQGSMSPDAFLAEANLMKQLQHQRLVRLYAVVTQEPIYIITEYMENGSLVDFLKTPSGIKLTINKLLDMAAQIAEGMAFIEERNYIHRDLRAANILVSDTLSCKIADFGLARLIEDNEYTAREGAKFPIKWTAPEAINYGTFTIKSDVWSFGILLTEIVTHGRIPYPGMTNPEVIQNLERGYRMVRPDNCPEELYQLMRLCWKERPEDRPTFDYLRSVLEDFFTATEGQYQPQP

T1 sequence (Q06187 whole entry): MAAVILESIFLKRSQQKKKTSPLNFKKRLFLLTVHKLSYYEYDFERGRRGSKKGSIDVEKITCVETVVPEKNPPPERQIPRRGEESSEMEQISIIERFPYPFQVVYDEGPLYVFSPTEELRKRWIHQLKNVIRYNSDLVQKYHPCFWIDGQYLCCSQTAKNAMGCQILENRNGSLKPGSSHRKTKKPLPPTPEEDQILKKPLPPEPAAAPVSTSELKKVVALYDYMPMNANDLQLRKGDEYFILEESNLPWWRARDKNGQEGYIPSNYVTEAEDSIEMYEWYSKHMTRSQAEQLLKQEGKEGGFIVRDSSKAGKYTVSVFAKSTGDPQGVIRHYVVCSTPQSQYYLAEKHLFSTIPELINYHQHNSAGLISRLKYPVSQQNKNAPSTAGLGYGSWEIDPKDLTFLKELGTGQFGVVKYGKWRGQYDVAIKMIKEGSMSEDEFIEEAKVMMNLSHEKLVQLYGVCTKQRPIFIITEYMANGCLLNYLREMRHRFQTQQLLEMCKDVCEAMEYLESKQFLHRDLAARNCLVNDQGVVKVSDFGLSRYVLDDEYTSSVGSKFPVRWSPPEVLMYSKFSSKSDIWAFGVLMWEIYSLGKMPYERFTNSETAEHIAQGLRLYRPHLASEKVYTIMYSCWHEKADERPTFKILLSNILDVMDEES

SMILES | IC50 (BTK-WT) [nM] | IC50 (LCK) [nM]
Cn1cc(Nc2nc(N3C4CCC(NC(=O)c5ccc(C6CC6)cc5)C3CC4)cnc2C(N)=O)cn1 (single isomer, unassigned) [Example D-199, 5-[2-(4-cyclopropylbenzamido)-8-azabicyclo[3.2.1]octan-8-yl]-3-[(1-methyl-1H-pyrazol-4-yl)amino]pyrazine-2-carboxamide] | 1000 to 10000 | > 10000
Cn1cc(Nc2nc(N3C4CCC(NC(=O)c5ccc(C6CC6)cc5)C3CC4)cnc2C(N)=O)cn1 (single isomer, unassigned) [Example D-200, 5-[2-(4-cyclopropylbenzamido)-8-azabicyclo[32.1]octan-8-yl]-3-[(1-methyl-1H-pyrazol-4-yl)amino]pyrazine-2-carboxamide] | 100 to 1000 | 1000 to 10000
Cn1cc(Nc2nc(N3C4CCC(NC(=O)c5ccc(C6CC6)cc5)C3CC4)cnc2C(N)=O)cn1 (single isomer, unassigned) [Example D-201, 5-[2-(4-cyclopropylbenzamido)-8-azabicyclo[3.2.1]octan-8-yl]-3-[(1-methyl-1H-pyrazol-4-yl)amino]pyrazine-2-carboxamide] | ≤ 10 | 100 to 1000
Cn1cc(Nc2nc(N3C4CCC(NC(=O)c5ccc(C6CC6)cc5)C3CC4)cnc2C(N)=O)cn1 (single isomer, unassigned) [Example D-202, 5-[2-(4-cyclopropylbenzamido)-8-azabicyclo[3.2. I]octan-8-yl]-3-[(1-methyl-1H-pyrazol-4-yl)amino]pyrazine-2-carboxamide] | 10 to 100 | 10 to 100
C[C@@H]1[C@H](NC(=O)c2ccc(C(C)(O)C(F)(F)F)cc2)CCCN1c1cnc(C(N)=O)c(Nc2cnn(C)c2)n1 (single isomer, unassigned) [Example D-213] | ≤ 10 | 100 to 1000
C[C@@H]1[C@H](NC(=O)c2ccc(C(C)(O)C(F)(F)F)cc2)CCCN1c1cnc(C(N)=O)c(Nc2cnn(C)c2)n1 (single isomer, unassigned) [Example D-214] | ≤ 10 | 10 to 100
Cn1cc(Nc2nc(N3CC(NC(=O)c4ccc(C5CC5)cc4)CC(F)(F)C3)cnc2C(N)=O)cn1 (stereo in doubt) [Example D-190, 5-[(5S)-5-(4-cyclopropylbenzamido)-3,3-difluoropiperidin-1-yl]-3-[(1-methyl-1H-pyrazol-4-yl)amino]pyrazine-2-carboxamide] | ≤ 10 | 100 to 1000
C[C@@H]1[C@H](NC(=O)c2ccc(C3CC3)cc2F)CCCN1c1cnc(C(N)=O)c(Nc2ccc(N3CCN(C)C[C@@H]3C)cc2)n1 [Example D-12, 5-[(2R,3R)-3-(4-cyclopropyl-2-fluorobenzamido)-2-methylpiperidin-1-yl]-3-({4-[(2S)-2,4-dimethylpiperazin-1-yl]phenyl}amino)pyrazine-2-carboxamide] | ≤ 10 | 10 to 100
C[C@@H]1[C@H](NC(=O)c2ccc(C3CC3)cc2F)CCCN1c1cnc(C(N)=O)c(Nc2ccc(N3CCN(C)CC3)nc2)n1 [Example D-13, 5-[(2R,3R)-3-(4-cyclopropyl-2-fluorobenzamido)-2-methylpiperidin-1-yl]-3-{[6-(4-methylpiperazin-1-yl)pyridin-3-yl]amino}pyrazine-2-carboxamide] | ≤ 10 | 100 to 1000
C[C@@H]1[C@H](NC(=O)c2ccc(C(C)(C)C)cc2)CCCN1c1cnc(C(N)=O)c(Nc2ccc(N3CCN(C)CC3)cc2)n1 [Example D-14, 5-[(2R,3R)-3-(4-tert-butylbenzamido)-2-methylpiperidin-1-yl]-3-{[4-(4-methylpiperazin-1-yl)phenyl]amino}pyrazine-2-carboxamide] | ≤ 10 | 10 to 100
Cc1cc(Nc2nc(N3CCC[C@@H](NC(=O)N4Cc5ccccc5C4=O)C3)cnc2C(N)=O)sn1 [Example D-15, N-[(3R)-1-{5-carbamoyl-6-[(3-methyl-1,2-thiazol-5-yl)amino]pyrazin-2-yl}piperidin-3-yl]-1-oxo-2,3-dihydro-1H-isoindole-2-carboxamide] | ≤ 10 | 10 to 100
C[C@@H]1[C@H](NC(=O)c2ccc(C3CC3)cc2Cl)CCCN1c1cnc(C(N)=O)c(Nc2ccc(N3CCN(C)CC3)cc2)n1 [Example D-16, 5-[(2R,3R)-3-(2-chloro-4-cyclopropylbenzamido)-2-methylpiperidin-1-yl]-3-{[4-(4-methylpiperazin-1-yl)phenyl]amino}pyrazine-2-carboxamide] | ≤ 10 | 10 to 100
C[C@@H]1[C@H](NC(=O)c2ccc(C3CC3)c(Cl)c2)CCCN1c1cnc(C(N)=O)c(Nc2ccc(N3CCN(C)CC3)cc2)n1 [Example D-17, 5-[(2R,3R)-3-(3-chloro-4-cyclopropylbenzamido)-2-methylpiperidin-1-yl]-3-{[4-(4-methylpiperazin-1-yl)phenyl]amino}pyrazine-2-carboxamide] | ≤ 10 | 100 to 1000
C[C@@H]1[C@H](NC(=O)c2ccc(C3CC3)nc2)CCCN1c1cnc(C(N)=O)c(Nc2cnn(C)c2)n1 [Example D-18, 5-[(2R,3R)-3-(6-cyclopropylpyridine-3-amido)-2-methylpiperidin-1-yl]-3-[(1-methyl-1H-pyrazol-4-yl)amino]pyrazine-2-carboxamide] | ≤ 10 | 100 to 1000
CN1CCN(C(=O)c2ccc(Nc3nc(N4CCC[C@@H](n5ccc6cc(C7CC7)ccc6c5=O)C4)cnc3C(N)=O)cc2)CC1 [Example D-169, 5-[(3R)-3-(6-cyclopropyl-1-oxo-1,2-dihydroisoquinolin-2-yl)piperidin-1-yl]-3-{[4-(4-methylpiperazine-1-carbonyl)phenyl]amino}pyrazine-2-carboxamide] | ≤ 10 | 100 to 1000
C/C=C/c1ccc(C(=O)N[C@@H]2CCCN(c3cnc(C(N)=O)c(Nc4cc(C)ns4)c3)[C@@H]2C)c(F)c1 [Example D-170, 5-[(2R,3R)-3-{2-fluoro-4-[(1E)-prop-1-en-1-yl]benzamido}-2-methylpiperidin-1-yl]-3-[(3-methyl-1,2-thiazol-5-yl)amino]pyridine-2-carboxamide] | 10 to 100 | 10 to 100
Cc1cc(Nc2nc(N3CCC[C@@H](c4ncc(-c5ccccc5)[nH]4)C3)cnc2C(N)=O)sn1 [Example D-171, 3-[(3-methyl-1,2-thiazol-5-yl)amino]-5-[(3R)-3-(5-phenyl-1H-imidazol-2-yl)piperidin-1-yl]pyrazine-2-carboxamide] | 10 to 100 | 100 to 1000
Cc1cc(Nc2nc(N3CCC[C@H](c4ncc(-c5ccccc5)[nH]4)C3)cnc2C(N)=O)sn1 [Example D-172, 3-[(3-methyl-1,2-thiazol-5-yl)amino]-5-[(3S)-3-(5-phenyl-1H-imidazol-2-yl)piperidin-1-yl]pyrazine-2-carboxamide] | 10 to 100 | 100 to 1000
C[C@@H]1[C@H](NC(=O)c2ccc(C3CC3)cc2F)CCCN1c1cnc(C(N)=O)c(Nc2cc(CN3CCOCC3)ns2)n1 [Example D-173, 5-[(2R,3R)-3-(4-cyclopropyl-2-fluorobenzamido)-2-methylpiperidin-1-yl]-3-{[3-(morpholin-4-ylmethyl)-1,2-thiazol-5-yl]amino}pyrazine-2-carboxamide] | ≤ 10 | 10 to 100
CN1CCN(c2ccc(Nc3nc(N4CCC[C@@H](n5ccc6cc(C7CC7)cc(F)c6c5=O)C4)cnc3C(N)=O)cc2)CC1 [Example D-174, 5-[(3R)-3-(6-cyclopropyl-8-fluoro-1-oxo-1,2-dihydroisoquinolin-2-yl)piperidin-1-yl]-3-{[4-(4-methylpiperazin-1-yl)phenyl]amino}pyrazine-2-carboxamide] | ≤ 10 | 100 to 1000
Cc1cc(Nc2cc(N3CCC[C@@H](NC(=O)N(C)C)[C@H]3C)cnc2C(N)=O)sn1 [Example D-175, 5-[(2R,3R)-3-[(dimethylcarbamoyl)amino]-2-methylpiperidin-1-yl]-3-[(3-methyl-1,2-thiazol-5-yl)amino]pyridine-2-carboxamide] | 10 to 100 | 1000 to 10000
C[C@@H]1[C@H](NC(=O)c2ccc(C3CC3)cc2F)CCCN1c1cnc(C(N)=O)c(Nc2cc(CN3CCCCC3)ns2)n1 [Example D-176, 5-[(2R,3R)-3-(4-cyclopropyl-2-fluorobenzamido)-2-methylpiperidin-1-yl]-3-{[3-(piperidin-1-ylmethyl)-1,2-thiazol-5-yl]amino}pyrazine-2-carboxamide] | ≤ 10 | 10 to 100
CC1(c2ccc(Nc3nc(N4CCC[C@@H](n5ccc6cc(C7CC7)ccc6c5=O)C4)cnc3C(N)=O)cc2)CCN(C2CCCC2)CC1 [Example D-177, 3-{[4-(1-cyclopentyl-4-methylpiperidin-4-yl)phenyl]amino}-5-[(3R)-3-(6-cyclopropyl-1-oxo-1,2-dihydroisoquinolin-2-yl)piperidin-1-yl]pyrazine-2-carboxamide] | ≤ 10 | 10 to 100
CN1CCN(c2ccc(Nc3cc(N4CCC[C@@H](n5ccc6cc(C7CC7)ccc6c5=O)C4)cnc3C(N)=O)cc2)CC1 [Example D-178, 5-[(3R)-3-(6-cyclopropyl-1-oxo-1,2-dihydroisoquinolin-2-yl)piperidin-1-yl]-3-{[4-(4-methylpiperazin-1-yl)phenyl]amino}pyridine-2-carboxamide] | 10 to 100 | 1000 to 10000
CN1CCN(c2ccc(Nc3nc(N4CCC[C@@H](n5ccc6cc(C7CC7)ccc6c5=O)C4)cnc3C(N)=O)nc2)CC1 [Example D-179, 5-[(3R)-3-(6-cyclopropyl-1-oxo-1,2-dihydroisoquinolin-2-yl)piperidin-1-yl]-3-{[5-(4-methylpiperazin-1-yl)pyridin-2-yl]amino}pyrazine-2-carboxamide] | 100 to 1000 | > 10000
C[C@@H]1[C@H](NC(=O)N(C)C)CCCN1c1cnc(C(N)=O)c(Nc2ccc(N3CCN(C)CC3)cn2)n1 [Example D-180, 5-[(2R,3R)-3-[(dimethylcarbamoyl)amino]-2-methylpiperidin-1-yl]-3-{[5-(4-methylpiperazin-1-yl)pyridin-2-yl]amino}pyrazine-2-carboxamide] | 100 to 1000 | > 10000
